By melting point is commonly meant the temperature of the solid-liquid transition.

We go through 62 compounds from a melting point compilation (Tetko et al.; mined from patent text by program, amines drawn as free bases though some values may be those of a salt).

The compound `N#Cc1ccc2c(c1)CCC1CC(=O)NN=C21` (configuration not stated) had a melting point of 292 to 295 °C.

For `CCC(CC)O[C@@H]1C=C(C(=O)O)C[C@H](CC(O)CO)[C@H]1NC(C)=O` (some centres not stated), the melting point fell in the range of 189 to 190 °C.

In turn, `CCC[C@H]1CC[C@H](c2ccc(CCC(F)F)cc2)CC1` had a melting point of 12 °C.

With `Clc1cc(Cl)c2c(c1)C[C@@H]1CCc3ccccc3[C@@H]1O2` (relative stereo), the melting point was in the range of 141 to 144 °C.

Compound `COc1ccnc(CSc2nc3cc4c(cc3[nH]2)OC(F)C(F)(F)O4)c1` (configuration not stated) displayed a melting point of 139 to 140 °C.

With `CCOC(=O)c1ccc(O[Si](C)(C)C(C)(C)C)c(OC)c1`, the melting point turned out to be 103 °C.

`C=CCN1CCC(Nc2ccc(Cl)cc2)CC1` yielded a melting point of 90 °C.

As to `C[C@@H]1CCC[C@H](C)N1CCCNC(=O)CN1C(=O)CCC1(C)C`, the melting point was in the range of 86 to 87 °C.

Compound `OCc1ccc(Cn2c(CC3CCN(Cc4ccccc4)CC3)nc3ccccc32)o1` showed a melting point of 144 °C.

Regarding `CC(=O)Nc1csc(-c2ccc3c(=O)n(CC(C)C)c(CNC(=O)OC(C)(C)C)c(-c4ccccc4)c3c2)n1`, the melting point lay within 227 to 228 °C.

Regarding `CC(C)(C)c1cc(NC(=O)Nc2csc(-c3cccnc3)n2)no1`, the melting point was in the range of 230 to 232 °C.

The compound `Cc1ccccc1CCc1c(C(C)C)nc(C(C)C)c(CO)c1-c1ccc(F)cc1` came in with a melting point of 125 to 126 °C.

Consider `Fc1cccc(F)c1-c1cnc(-c2ccc(-c3ccc(OC(F)(F)F)cc3)cc2)nn1`, for which the melting point was 199 to 202 °C.

The compound `Nc1cccc(CCC(=O)Nc2ccc(Nc3ccccc3)cc2)c1` came in with a melting point of 164 to 166 °C.

As for `COc1cc(C)nc(-n2cncn2)n1`, the melting point lay within 142 to 143 °C.

The compound `Cc1csc2c(=O)n(N=Cc3ccc(Cl)cc3)cnc12` came in with a melting point of 213 to 215 °C.

Take `CC(O)Cn1nc2c3c(cc(O)cc31)CCC2` (configuration not stated): the melting point is 153 to 155 °C.

`Cc1cccc(NC(=O)CN2C(=O)C3(COc4cc5c(cc43)CCO5)c3ccccc32)c1C` (configuration not stated) returned a melting point of 251 to 253 °C.

`CS(=O)c1ccc(C2=C(c3ccc(F)cc3)C(=O)C(C)(C)O2)cc1` (configuration not stated) registered a melting point of 134 to 136 °C.

Take `CC(C)N1Cc2c(F)cccc2N(CCN2CC=C(c3c[nH]c4cc(F)ccc34)CC2)S1(=O)=O`: the melting point is 107 to 109 °C.

`CC(C(=O)CC(C)(C)Cc1ccc(Cl)cc1)N1C(=O)c2ccccc2C1=O` (configuration not stated) yielded a melting point of 96 to 98 °C.

Regarding `CNC1Oc2cc(Cl)cc(-c3ccccc3Cl)c2O1` (configuration not stated), the melting point is over 250 °C.

In turn, `CC(=O)Nc1ccc(Sc2cccnc2)cc1` showed a melting point of 138 to 140 °C.

As for `CN1Cc2ccccc2[C@H]2c3cccc4c3c(cn4C)C[C@@H]21` (relative stereo), the melting point lay in the range of 184 to 185 °C.

For the compound `COC(=O)C(Cl)=Cc1cc(-n2ncc(C(F)(F)F)c(C)c2=O)c(F)cc1Cl`, the melting point lay within 142 to 145 °C.

Regarding `COc1ccc2c(c1)c(CCNC(C)=O)cn2S(=O)(=O)c1ccccc1`, the melting point fell in the range of 140 to 141 °C.

`CC(=O)OC1CCN2C(=O)N(c3ccc(C#N)c4ccccc34)C(=O)C12` (configuration not stated) displayed a melting point of 105 °C.

The compound `CN(C)c1cc2c(cc1Cl)NC(=O)CC(c1cccc(-c3csc(Nc4ccncc4)n3)c1)=N2` had a melting point of 231 to 234 °C.

Compound `NC(=O)OCc1ccc(CNC(=O)[C@@H](CCCNC(N)=N[N+](=O)[O-])NC(=O)C(c2ccccc2)c2ccccc2)cc1` registered a melting point of 130 to 132 °C.

In turn, `ClCc1ccc(OCc2csc(-c3ccccc3)n2)nc1` registered a melting point of 117 to 118 °C.

As to `CC(=O)Nc1nc(-c2ccc(S(C)=O)cc2)cs1` (configuration not stated), the melting point is 274 °C.

`COC1(c2ccccc2)CCc2c(C(=O)N3CCC3)cc3c(nc(C)n3C)c2O1` (configuration not stated) displayed a melting point of 147 to 150 °C.

`CCCc1nn(-c2ccc(C(F)(F)F)cn2)cc1CCCCn1cc(CCC(=O)O)c(-c2ccc(F)cc2)n1` registered a melting point of 119 to 121 °C.

Take `CC(=O)OC1CSC(Oc2ccc(-c3ccncc3)cc2)C(OC(C)=O)C1OC(C)=O` (configuration not stated): the melting point stood at 180 °C.

In turn, `C#CCOc1c(Cl)cc(Cl)cc1C(=O)NCC1CCCN1C1CCCCC1` (configuration not stated) had a melting point of 84 to 85 °C.

With `CCS(=O)(=O)N[C@H](C(=O)NCCc1ccc(OCCOc2ccc(F)cc2)c(OC)c1)C(C)C`, the melting point lay within 124 to 125 °C.

For the compound `CC1(C)OC(C=Cc2ccc(F)cc2F)=CC1=O`, the melting point was in the range of 98.5 to 100 °C.

As for `COc1ccc([C@@H]2CN(C)CC[C@@H]2NC(=O)c2cccc(C(F)(F)F)c2)cc1OC` (relative stereo), the melting point lay in the range of 122 to 124 °C.

Turning to `O=C1c2c(Br)cccc2S(=O)(=O)N1CCl`, the melting point was 157 to 159 °C.

The compound `COCC(Oc1ccc(-n2c(C)nc3cc(C(F)(F)F)ccc32)cc1)C(=O)O` (configuration not stated) displayed a melting point of 111 to 112 °C.

`S=c1cc(-c2ccccc2)c(S)n[nH]1` registered a melting point of 146 to 148 °C.

For `Cc1nc(=O)n(C)cc1Cl`, the melting point lay in the range of 132 to 134 °C.

Turning to `CN1C(C(=O)Nc2nncs2)=C(O)c2ccc3ccccc3c2S1(=O)=O`, the melting point is 217 to 219 °C.

`CNS(=O)(=O)Cc1ccc(NN=CCSc2ccccc2)cc1` returned a melting point of 110 to 112 °C.

Compound `CCOC(=O)C=C(c1ccccc1)c1cc([N+](=O)[O-])ccc1NS(=O)(=O)c1ccc(OC)cc1` yielded a melting point of 126 to 129 °C.

The compound `O=C(O)CCCNC(=O)C(CS)Cc1ccccc1` (configuration not stated) gave a melting point of 94.5 to 101 °C.

For `Cc1cc(O)ccc1-n1cc(C(=O)O)c(=O)cc1C=O`, the melting point lay in the range of 230 to 250 °C.

Turning to `CC(C)n1cc(-c2ccc(Oc3ccccc3)c(CO)c2)c2c(N)ncnc21`, the melting point is 92 to 94 °C.

Compound `CCOc1csc(C2OC(=O)NC2=O)c1` (configuration not stated) yielded a melting point of 144 to 146 °C.

For the compound `Cn1cc(OS(C)(=O)=O)c(=O)c2cccc(F)c21`, the melting point was in the range of 207 to 209 °C.

`CS(=O)(=O)c1cc(C(F)(F)F)ccc1C(=O)CC(=O)C1CC1` yielded a melting point of 123 to 125 °C.

Compound `O=C(O)c1ccc(C(Cc2ccc(F)cc2)C(=O)Nc2nc3ccccc3o2)cc1` (configuration not stated) yielded a melting point of 199 to 201 °C.

As to `CC(C)(C)OC(=O)[C@@H]1CC[C@@H]2C=C[C@H]3CCN(C(=O)OC(C)(C)C)[C@@H]3C(=O)N21`, the melting point lay within 147 to 149 °C.

`COc1cc2c(cc1OC)C(Cc1ccc([N+](=O)[O-])cc1)NCC2` (configuration not stated) yielded a melting point of 134 to 136 °C.

For the compound `COC(=N)c1nn(-c2c(Cl)cc(C(F)(F)F)cc2Cl)c(N)c1S(C)=O` (configuration not stated), the melting point lay in the range of 179 to 180 °C.

With `COc1ccc(-c2nccn2N=Cc2ccc(N(C)C)cc2)cc1`, the melting point worked out at 108 °C.

`Cc1cc(C(=O)NCOC(=O)CO)ncc1C(c1cc(F)ccc1F)S(=O)(=O)c1ccc(F)cc1` (configuration not stated): the melting point is 84 °C.

The compound `CCC(CC)c1ccc(Cl)c2nc3n(c12)CCCCN3c1ccc(C)cc1Br` came in with a melting point of 152 to 155 °C.

On to `O=C(NCCCCCO)c1cc([N+](=O)[O-])cc([N+](=O)[O-])c1Cl`, for which the melting point is 100 to 103 °C.

Consider `CC1CC1n1cc(C(=O)O)c(=O)c2cc(F)c(N3CCNCC3)cc21` (configuration not stated), for which the melting point was 110 to 120 °C.

Consider `O=c1[nH]c2ncc(-c3ccc(-n4ccnc4)cc3)nc2n1CC1CCCCC1`, for which the melting point is 284 to 287 °C.

Compound `COC(=O)c1ccc(C2CNN=C2c2ccc(Cl)cc2)cc1` (configuration not stated) gave a melting point of 155 to 159 °C.
